Numbered stars: 1 amine (or outer) side, 2 acyl side, 3 side chain; on linkers, the order of the positions; unused ones are H or OH. Peptide text beside a SMILES is read from it. * marks the point of attachment. C20 diacid = O=C(O)CCCCCCCCCCCCCCCCCCC(=O)*; C18 diacid = O=C(O)CCCCCCCCCCCCCCCCC(=O)*; γGlu = O=C(O)[C@H](CCC(=O)[*:2])N[*:1]
What was measured:
[1] = target: T1, Amylin receptor AMY3; CALCR/RAMP3 (Homo sapiens, UniProt O60896+P30988); test: Agonist activity at human amylin receptor expressed in BHK570 cells co-expressing RAMP3 assessed as increase in intracellular cAMP concentration incubated for 3 hrs in absence of albumin by CRE luciferase reporter gene assay; format: functional, cell-based
T1 sequence (P30988 whole entry): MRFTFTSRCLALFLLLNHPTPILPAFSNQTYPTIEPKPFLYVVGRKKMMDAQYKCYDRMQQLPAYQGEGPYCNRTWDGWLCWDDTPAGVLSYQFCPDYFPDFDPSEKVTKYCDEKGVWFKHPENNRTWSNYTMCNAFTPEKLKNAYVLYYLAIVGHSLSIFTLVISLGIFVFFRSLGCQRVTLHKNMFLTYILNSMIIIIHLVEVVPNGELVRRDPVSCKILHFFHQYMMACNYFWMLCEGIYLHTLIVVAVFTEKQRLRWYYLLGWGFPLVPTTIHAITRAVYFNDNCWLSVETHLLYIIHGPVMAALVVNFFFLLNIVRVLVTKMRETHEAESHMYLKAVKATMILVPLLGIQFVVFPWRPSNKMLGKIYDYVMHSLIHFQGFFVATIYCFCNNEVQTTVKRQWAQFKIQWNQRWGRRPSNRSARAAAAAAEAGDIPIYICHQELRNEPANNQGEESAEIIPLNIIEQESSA
T1 sequence (O60896 whole entry): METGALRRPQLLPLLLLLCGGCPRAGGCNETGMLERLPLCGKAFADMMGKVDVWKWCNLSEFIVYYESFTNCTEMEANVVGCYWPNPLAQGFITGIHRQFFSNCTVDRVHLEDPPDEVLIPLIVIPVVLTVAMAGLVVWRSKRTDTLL

[2] = target: T2, Calcitonin receptor (Homo sapiens, UniProt P30988); test: Agonist activity at human calcitonin receptor expressed in BHK570 cells assessed as increase in intracellular cAMP concentration incubated for 3 hrs in absence of albumin by CRE luciferase reporter gene assay; format: functional, cell-based
T2 sequence (P30988 whole entry): T1 sequence (P30988 whole entry)

[3] = Solubility in 100 mM glycylglycine buffer at pH 3.0 incubated for 18 hrs by UPLC analysis; format: physicochemical
[4] = Solubility in 100 mM glycylglycine buffer at pH 4.0 incubated for 18 hrs by UPLC analysis; format: physicochemical
[5] = Solubility in 100 mM bistrispropane buffer at pH 6.0 incubated for 18 hrs by UPLC analysis; format: physicochemical
[6] = Solubility in 100 mM glycylglycine buffer at pH 5.0 incubated for 18 hrs by UPLC analysis; format: physicochemical
[7] = Solubility in 100 mM bistrispropane buffer at pH 6.5 incubated for 18 hrs by UPLC analysis; format: physicochemical
[8] = Solubility in 100 mM bistrispropane buffer at pH 7.0 incubated for 18 hrs by UPLC analysis; format: physicochemical
[9] = Solubility in 100 mM bistrispropane buffer at pH 7.5 incubated for 18 hrs by UPLC analysis; format: physicochemical
[10] = Solubility in 100 mM bistrispropane buffer at pH 8.0 incubated for 18 hrs by UPLC analysis; format: physicochemical
[11] = target: T1, Amylin receptor AMY3; CALCR/RAMP3; test: Displacement of [125I]-labeled rat amylin from human amylin receptor expressed in BHK tkts13 whole cells co-expressing RAMP3 incubated for 60 mins by scintillation proximity assay; format: cell-based
[12] = target: T2, Calcitonin receptor; test: Agonist activity at human calcitonin receptor expressed in BHK570 cells assessed as increase in intracellular cAMP concentration incubated for 3 hrs in presence of 10% FBS by CRE luciferase reporter gene assay; format: functional, cell-based

EC50 [1]	EC50 [2]	solubility at 18 h [3]	solubility at 18 h [4]	solubility at 18 h [5]	solubility at 18 h [6]	solubility at 18 h [7]	solubility at 18 h [8]	solubility at 18 h [9]	solubility at 18 h [10]	IC50 [11]	EC50 [12]	SMILES
14 pM	7 pM	≥ 200 µM	≥ 200 µM	≥ 200 µM	≥ 200 µM	≥ 200 µM	≥ 200 µM	≥ 200 µM	≥ 200 µM	323 pM	–	CC(C)C[C@H](NC(=O)[C@H](CCC(=O)O)NC(=O)[C@H](Cc1cnc[nH]1)NC(=O)[C@H](CC(C)C)NC(=O)[C@H](CCC(=O)O)NC(=O)[C@H](C)NC(=O)[C@H](CO)NC(=O)[C@H](CC(C)C)NC(=O)[C@H](CCCNC(=N)N)NC(=O)CNC(=O)[C@H](CC(C)C)NC(=O)[C@@H](NC(=O)[C@H](C)NC(=O)[C@@H](NC(=O)[C@H](CO)NC(=O)[C@H](CC(C)C)NC(=O)[C@@H]1CCCN1C(=O)[C@H](CO)NC(=O)[C@H](C)NC(=O)[C@H](CCC(=O)O)NC(=O)CCCCCCCCCCCCCCCCC(=O)O)[C@@H](C)O)C(C)C)C(=O)N[C@@H](C)C(=O)N[C@H](C(=O)N[C@@H](CC(C)C)C(=O)N1CCC[C@H]1C(=O)N[C@@H](CCCNC(=N)N)C(=O)N[C@H](C(=O)N[C@@H](CCC(=O)O)C(=O)N[C@H](C(=O)NCC(=O)N1CCC[C@H]1C(=O)N[C@@H](CCC(=O)O)C(=O)N[C@@H](CO)C(=O)N1CCC[C@H]1C(N)=O)[C@@H](C)O)[C@@H](C)O)[C@@H](C)O ({C18 diacid}-EASPLSTAVLGRLSAELHELATLPRTETGPESP-NH2)
64 pM	24 pM	≥ 200 µM	≥ 200 µM	≥ 200 µM	≥ 200 µM	≥ 200 µM	≥ 200 µM	≥ 200 µM	≥ 200 µM	1510 pM	–	CC(C)C[C@H](NC(=O)[C@H](C)NC(=O)[C@H](C)NC(=O)[C@@H](NC(=O)[C@H](CO)NC(=O)[C@H](CC(C)C)NC(=O)[C@H](CCC(=O)O)NC(=O)[C@H](CO)NC(=O)[C@H](C)NC(=O)CC[C@H](NC(=O)CCCCCCCCCCCCCCCCCCC(=O)O)C(=O)O)[C@@H](C)O)C(=O)NCC(=O)N[C@@H](Cc1cnc[nH]1)C(=O)N[C@@H](CC(C)C)C(=O)N[C@@H](CO)C(=O)N[C@@H](C)C(=O)N[C@@H](CCC(=O)O)C(=O)N[C@@H](CC(C)C)C(=O)N[C@@H](Cc1cnc[nH]1)C(=O)N[C@@H](CCC(=O)O)C(=O)N[C@@H](CC(C)C)C(=O)N[C@@H](C)C(=O)N[C@H](C(=O)N[C@@H](CC(C)C)C(=O)N1CCC[C@H]1C(=O)N[C@@H](Cc1cnc[nH]1)C(=O)N[C@H](C(=O)N[C@@H](CCC(=O)O)C(=O)N[C@H](C(=O)NCC(=O)N[C@H](C(=O)NCC(=O)N[C@H](C(=O)N1CCC[C@H]1C(N)=O)[C@@H](C)O)[C@@H](C)O)[C@@H](C)O)[C@@H](C)O)[C@@H](C)O ({C20 diacid-γGlu}-ASELSTAALGHLSAELHELATLPHTETGTGTP-NH2)
239 pM	–	–	–	–	–	–	–	–	–	21000 pM	53 pM	CC(C)C[C@H](NC(=O)[C@H](C)NC(=O)[C@H](C)NC(=O)[C@@H](NC(=O)[C@H](CO)NC(=O)[C@H](CC(C)C)NC(=O)[C@H](CCC(=O)O)NC(=O)[C@H](CO)NC(=O)[C@H](C)NC(=O)CC[C@H](NC(=O)CCCCCCCCCCCCCCCCCCC(=O)O)C(=O)O)[C@@H](C)O)C(=O)NCC(=O)N[C@@H](CCCNC(=N)N)C(=O)N[C@@H](CC(C)C)C(=O)N[C@@H](CO)C(=O)N[C@@H](C)C(=O)N[C@@H](CCC(=O)O)C(=O)N[C@@H](CC(C)C)C(=O)N[C@@H](Cc1cnc[nH]1)C(=O)N[C@@H](CCC(=O)O)C(=O)N[C@@H](CC(C)C)C(=O)N[C@@H](C)C(=O)N[C@H](C(=O)N[C@@H](Cc1ccc(O)cc1)C(=O)N1CCC[C@H]1C(=O)N[C@@H](CCCNC(=N)N)C(=O)N[C@H](C(=O)N[C@@H](CCC(=O)O)C(=O)N[C@H](C(=O)NCC(=O)N[C@@H](CO)C(=O)NCC(=O)N[C@@H](CO)C(=O)N1CCC[C@H]1C(=O)N[C@@H](CCCCN)C(=O)O)[C@@H](C)O)[C@@H](C)O)[C@@H](C)O ({C20 diacid-γGlu}-ASELSTAALGRLSAELHELATYPRTETGSGSPK-OH)
